What is called melting point is the temperature, or range, at which the solid turns liquid. Consider `CN(C)c1nc(NS(=O)(=O)c2ccc(N)cc2)cc(N2CCC2)n1`, for which the melting point was 239 to 240 °C.

The compound `CCCCNC(=O)c1cc(=O)c(Oc2ccccc2)co1` showed a melting point of 149 to 151 °C.

`CCC(C)C(=O)Nc1nn(C)c2c1sc1cc(N)ccc12` (stereo unspecified) displayed a melting point of 196 to 197 °C.

In the case of `CC(C)C1C(=O)N(CC(=O)O)C(c2ccccc2)=CN1C(=O)c1cccnc1` (racemic), the melting point lay within 230 to 240 °C.

With `CCCc1nn2ncc(C(=O)OCC)c2n1Cc1ccc(-c2ccccc2-c2nnnn2C(c2ccccc2)(c2ccccc2)c2ccccc2)cc1`, the melting point lay in the range of 106 to 108 °C.

Regarding `CC=CC(O)c1c(C(C)C)nc(C(C)C)c(CCCCC)c1-c1ccc(F)cc1` (stereo unspecified), the melting point is 70 to 72 °C.

`Cc1c(Cl)cc(C(=O)C=CC(=O)O)cc1Cl` registered a melting point of 206 to 216 °C.

As to `Cc1cc(C)cc(-c2nnc(C#N)o2)c1`, the melting point was determined as 127 °C.

With `CC(Cc1ccc(C(=O)N[C@@H](CCC(=O)O)C(=O)O)cc1)C1CNc2nc(N)nc(O)c2C1` (stereo partly specified), the melting point was more than 250 °C.

As to `Nc1nc(-c2ccc3ncccc3c2)c(-c2ccccn2)s1`, the melting point amounted to 226 °C.

The compound `NCc1sc(C(c2ccc(Cl)cc2)c2c(Cl)cc(-n3ncc(=O)[nH]c3=O)cc2Cl)nc1-c1ccccc1` (stereo unspecified) yielded a melting point of 170 °C.

In turn, `COc1ccc2c(c1)C13CCCC4OC41C(C2)N(C(=O)C1CC1)CC3` (stereo unspecified) displayed a melting point of 134 to 136 °C.

Take `O=[N+]([O-])c1cccc(C2Nn3cc(-c4ccc(-c5ccccc5)cc4)nc3S2)c1` (stereo unspecified): the melting point was in the range of 263 to 265 °C.

In turn, `NC(=O)c1ccc(Nc2nc(N)nc(Cc3c(Cl)ccc4[nH]ccc34)n2)cc1` showed a melting point of 204 to 205 °C.

In the case of `NC(CCOc1ccncc1)C(=O)c1ccccc1CO` (stereo unspecified), the melting point is 108 to 109 °C.

Turning to `O=C(O)C1CCCC2c3ccccc3CC12` (stereo unspecified), the melting point lay in the range of 138 to 139 °C.

`c1ccc(CSCC2CCn3c(nc4ccccc43)S2)cc1` (stereo unspecified) displayed a melting point of 97 to 99 °C.

`COc1cccc(Nc2ncc(C(=O)O)c(=O)[nH]2)c1` returned a melting point of 247 to 249 °C.

In the case of `O=[N+]([O-])c1ccc(Cl)c(Cl)c1Br`, the melting point worked out at 73 °C.

In turn, `COc1cc(OC)c(-c2nccs2)cc1/C=C/C(=O)c1ccc(C(=O)O)cc1` came in with a melting point of more than 260 °C.

Take `[N-]=[N+]=NCc1cccnc1`: the melting point was 40 to 43 °C.

Turning to `Nc1ccccc1C(=O)NCCCCn1ccnc1`, the melting point lay within 91 to 93 °C.

As to `CS(=O)(=O)c1ccc(-n2nc(C(F)(F)F)cc2-c2ccc(-c3ccco3)cc2)cc1C(F)(F)F`, the melting point lay in the range of 159 to 160 °C.

In the case of `Nc1nc(NCc2cccc(F)c2)nc2nc(-c3ccco3)nn12`, the melting point fell in the range of 216 to 218 °C.

`CC(C)(c1ccc(Oc2ccc([N+](=O)[O-])cc2C(F)(F)F)cc1)c1cccc(C(C)(C)c2ccc(Oc3ccc([N+](=O)[O-])cc3C(F)(F)F)cc2)c1`: the melting point was in the range of 127 to 128 °C.

For `O=C1N(C(c2ccccc2)c2ccccc2)c2ccccc2C12COc1cc3c(cc12)OCCO3` (stereo unspecified), the melting point fell in the range of 183 to 185 °C.

`Cc1nc(N2CCc3ccccc3CC2)c(C#N)c(=O)n1CC1CC1` came in with a melting point of 119 to 122 °C.

`COCCOc1cc2c(cc1-c1ccccc1F)NC(=O)CC(c1cccc(C#N)c1)=N2` displayed a melting point of 211 to 213 °C.

The compound `C1=C(c2ccccc2)CCN(CC2CCC=C(c3ccccc3)C2)C1` (stereo unspecified) had a melting point of 94 to 100 °C.

`CCCCCOc1ccc(-c2ccc(-c3ccccc3CC)cc2)cc1`: the melting point is 62 to 65 °C.

With `CCCn1c(=O)c2c(NC)n[nH]c2n(Cc2cccc(Cl)c2)c1=O`, the melting point fell in the range of 263 to 265 °C.

Compound `NC(=O)CC[C@H](NC(=O)CCc1ccc(OCc2ccccc2)cc1OCc1ccccc1)C(=O)N1CCN(c2ccccc2)CC1` showed a melting point of 118 to 120 °C.

Turning to `O=C(O)c1c(F)cccc1-c1ccccc1`, the melting point was 122 to 125 °C.

With `CC(C)(C)OC(=O)NC1CCCCCC=CC2CC2(C(=O)NS(=O)(=O)C2CC2)NC(=O)C2CC(OC(=O)c3ccc(-c4ccccc4)cc3)CN2C1=O` (stereo unspecified), the melting point was in the range of 162 to 164 °C.

Compound `CS(=O)(=O)c1ccc(-c2cnn(CC(F)(F)F)c(=O)c2NCCC#N)cc1` showed a melting point of 172 to 174 °C.

Regarding `CCOC(=O)C1=C(C)NC(=S)N(C(=O)c2ccc([N+](=O)[O-])cc2)C1c1cccc([N+](=O)[O-])c1` (stereo unspecified), the melting point fell in the range of 139 to 141 °C.

In turn, `CCOC(=O)c1cc2c(-c3ccc(C(F)(F)F)n(C)c3=O)c(F)cc(Cl)c2o1` displayed a melting point of 118 to 120 °C.

`O=C(O)C(Cc1ccc(OCCN2c3ccccc3Oc3ccccc32)cc1)Oc1ccccc1` (stereo unspecified) showed a melting point of 119 to 120 °C.

In turn, `N#Cc1nn(-c2c(Cl)cc(C(F)(F)F)cc2Cl)c(N)c1C(F)(F)F` showed a melting point of 191 to 193 °C.

In turn, `O=C1CCC(CCC(=O)OCc2ccccc2Cl)N1` (stereo unspecified) displayed a melting point of 99 to 100 °C.

`CC1(C)C(Cl)(Cl)C1(Cl)C(=O)O` (stereo unspecified) yielded a melting point of 148 to 150 °C.

`COC(=O)CCCCc1cc2nc(Cl)ccc2n1S(=O)(=O)c1ccccc1` returned a melting point of 73 °C.

In the case of `COc1ccc(Cn2nnc(-c3cccc(C(=O)NCc4ccc(C(=O)O)cc4)c3)n2)cc1`, the melting point is 202 to 205 °C.

With `O=C(CCC(=O)N1CCC[C@H]1C(=O)O)c1cccs1`, the melting point was in the range of 100 to 102 °C.

The compound `CCOCCOc1c(C)cc(C#CC2(O)CN3CCC2CC3)cc1C` (stereo unspecified) gave a melting point of 113 to 115 °C.

`OCCc1cccc(Nc2ccc3nc(N[C@@H]4CCc5ccccc54)ccc3c2)c1`: the melting point is 109 °C.

Consider `O=C1c2ccccc2CCC1CN1CCC2(CC1)C(=O)NCN2c1ccccc1` (stereo unspecified), for which the melting point lay within 170 to 173 °C.

In turn, `OCC1COC2(CC(c3ccccc3)SC(c3ccccc3)C2)O1` (stereo unspecified) registered a melting point of 116 to 118 °C.

The compound `Fc1cccc(CC[C@H]2CNCCN2)c1` returned a melting point of 95 to 99 °C.

As for `NS(=O)(=O)c1cccc(NC(=O)c2cnn3c(C(F)(F)F)cc(-c4ccc(C(F)(F)F)c(Cl)c4)nc23)c1`, the melting point amounted to 287 °C.

Compound `O=C(Nc1c(C(O)(C(F)(F)F)C(F)(F)F)ccc2ccccc12)c1ccc(I)cc1` returned a melting point of 189 to 190 °C.

`O=C(c1ccc([N+](=O)[O-])cc1)N1CC2CC2(c2ccc(Cl)cc2)C1` (stereo unspecified): the melting point lay within 177 to 180 °C.

As for `Clc1ccc(-c2cncn3ncnc23)cc1`, the melting point lay within 154 to 155 °C.

Consider `N#Cc1cc(-c2c(-c3ccccc3)nn3ccccc23)cn(CCC(=O)O)c1=O`, for which the melting point lay in the range of 196 to 200 °C.

In turn, `CC(C)n1nc(-c2cc(C#N)c(=O)[nH]c2-c2ccccc2)ccc1=O` yielded a melting point of more than 250 °C.

Compound `CCCCCCNP(N)(N)=S` gave a melting point of 65 to 70 °C.

In turn, `CC(C)OC(=O)N1CCC(NC(=O)N2CCn3c(c(C(N)=O)c(C#N)c3C3CCOCC3)C2)CC1` yielded a melting point of 124 to 126 °C.

In the case of `CCCCC12CCC3C4CCC(=O)C=C4CCC3C1CCC2(O)CC` (stereo unspecified), the melting point is 78 to 80 °C.

On to `CC(=O)OCc1ccc([N+](=O)[O-])cc1`, for which the melting point lay within 77 to 78 °C.

In the case of `CCCCC(C(=O)OCC)S(=O)(=O)c1ccc(OC)cc1` (stereo unspecified), the melting point was 62 °C.

Consider `CNC(=O)c1cccc(NC(=O)CCc2ccc(O)cc2)c1`, for which the melting point came out at 158 °C.

In the case of `CCC(C)N1CC(C)=CC2=C1N1CN(OC)C=C1N=N2` (stereo unspecified), the melting point fell in the range of 157 to 159 °C.

For the compound `Cc1cc(Cl)cc2c(=O)oc(-c3cc(OCC(F)(F)F)nn3-c3ncccc3Cl)nc12`, the melting point lay in the range of 178 to 180 °C.

With `CCCCOc1ccc2c(=O)c(-c3nnnn3C)cn(C)c2c1`, the melting point lay within 187 to 190 °C.

As for `CCOC(=O)COc1ccc(N(C)Cc2ccc(-c3ccc(C(F)(F)F)cc3)nc2C)cc1CCCOC`, the melting point is 72 to 73 °C.

With `CCOC(=O)c1nc(NC(C)=O)sc1Cc1ccccc1`, the melting point is 178 to 180 °C.

`CSCC[C@H](NC(=O)c1cc(NC(Cn2ccnc2)c2ccc(F)cc2)ccc1CCc1ccc(F)cc1)C(=O)O` (stereo partly specified): the melting point was 115 to 120 °C.

As to `Cc1c(NC(=O)c2ccc(-c3ccc(F)cc3)cc2)ccc2cc(CN3CCC(CC(=O)N4CCCCC4)CC3)cnc12`, the melting point lay in the range of 189 to 190 °C.

As for `O=C1C(=O)N(Cc2ccc(O)cc2)c2ccc(S(=O)(=O)N3CCC[C@H]3COc3ccccc3)cc21`, the melting point fell in the range of 170 to 172 °C.

As to `O=C1C(CCO)Oc2ccccc2N1Cc1cccc2ccccc12` (stereo unspecified), the melting point lay in the range of 100 to 104 °C.

In turn, `COc1cc2c(cc1OC)CN(CCCOc1ccc(NC(=O)c3nc4cc(C)c(C)cc4nc3OC)cc1)CC2` registered a melting point of 158 °C.

Consider `CCC(C)(O)CCCCc1cccc(CCc2ccc(O)c(CO)c2)c1` (stereo unspecified), for which the melting point lay in the range of 101 to 104 °C.

In the case of `Cc1nnc(-c2ccnc(Nc3cc(F)ccc3F)c2)o1`, the melting point lay within 202 to 203 °C.

Take `CCSc1nnc(-c2ccc(OC)cc2)c(-c2ccc(OC)cc2)n1`: the melting point fell in the range of 118 to 120 °C.

For `NS(=O)(=O)c1cc2c(s1)CN(CCO)CC2`, the melting point fell in the range of 184 to 186 °C.

Consider `COc1ccc(C(=O)c2cccnc2)cc1[N+](=O)[O-]`, for which the melting point fell in the range of 86 to 88 °C.

In turn, `O=C(O)c1ccc2cn(C3CCCC3)nc2c1` showed a melting point of 190 to 193 °C.

Take `CCOC(=O)C(C)(C)Oc1ccc(CCc2cc(-c3ccc(C(F)(F)F)cc3)oc2C)cc1`: the melting point lay in the range of 87 to 88 °C.

In the case of `OCc1cc2c(N=C3SC[C@@H]4Cc5ccccc5CN34)cccc2cn1`, the melting point was 210 °C.

`Cc1nccn1-c1ccc(-c2cnc([C@H](Cc3ccccn3)N(C=O)c3cc4cc(Cl)ccc4o3)n2C)cc1` returned a melting point of 159 to 161 °C.

`Cc1ccc(S(=O)(=O)C(CCCCCc2cccc(C(F)(F)F)c2)C(=O)O)cc1` (stereo unspecified) displayed a melting point of 62 °C.

Take `c1ccc(C(Cn2cncn2)c2ccccc2)cc1`: the melting point lay within 107 to 108 °C.

`COc1cc(N)c(C(=O)CS(C)=O)cc1OC` (stereo unspecified): the melting point was in the range of 162 to 164 °C.

On to `CC(C)OC(=O)Cn1c(=O)n(C)c(=O)n(-c2cc(N=c3sc(=O)n4n3CCC=C4)c(F)cc2Cl)c1=O`, for which the melting point was in the range of 99 to 111 °C.

The compound `O=C1c2ccccc2C(=O)N1OCn1ccnc1` returned a melting point of 158 to 160 °C.

The compound `C[C@]12CCC(=O)N[C@@H]1CCc1cc(-c3nccs3)ccc12` gave a melting point of 206 to 207 °C.

The values are drawn from a melting point compilation (Tetko et al.; mined from patent text by program, amines drawn as free bases though some values may be those of a salt).
